# Reference: publication PMC6531345 (Bioorganic & medicinal chemistry letters, 2019)
# Legend:
# E. coli GroEL/ES = details: high-throughput screen; cited from earlier work
# ESKAPE pathogens = details: panel of Gram-positive and Gram-negative bacteria; cited from earlier work
# human HSP60/10 = details: in vitro; cited from earlier work
# M. tuberculosis PtpB [1] = target: T1, M. tuberculosis PtpB (Mycobacterium tuberculosis, UniProt I6WXK4); details: cited from earlier work
# native Rho = details: counter-screen; cited from earlier work
# native MDH = details: counter-screen; cited from earlier work
# M. tuberculosis PtpB [2] = target: T1, M. tuberculosis PtpB; type: biochemical; details: pNPP substrate, 6–8 replicates
# T1 sequence (I6WXK4 whole entry, looked up): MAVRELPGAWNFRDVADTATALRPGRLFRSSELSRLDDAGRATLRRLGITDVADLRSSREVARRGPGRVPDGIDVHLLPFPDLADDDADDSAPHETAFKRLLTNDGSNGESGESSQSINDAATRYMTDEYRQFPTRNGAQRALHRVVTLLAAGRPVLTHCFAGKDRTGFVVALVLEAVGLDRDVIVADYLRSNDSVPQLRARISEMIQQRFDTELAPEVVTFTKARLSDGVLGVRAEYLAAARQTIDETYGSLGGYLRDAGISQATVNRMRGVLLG
smiles,measurement,setting,value
Cc1ccc(S(=O)(=O)Nc2ccc(-c3nc4ccc(NS(=O)(=O)c5ccc(C)cc5)cc4[nH]3)cc2)cc1 [compound 1],GroEL/ES inhibition,E. coli GroEL/ES,one of our most potent GroEL/ES inhibitors
same,antibacterial efficacy,ESKAPE pathogens,lacked any appreciable antibacterial efficacy
Cc1ccc(C(=O)Nc2ccc(S(=O)(=O)O)c3cc(S(=O)(=O)O)cc(S(=O)(=O)O)c23)cc1NC(=O)c1cccc(NC(=O)Nc2cccc(C(=O)Nc3cc(C(=O)Nc4ccc(S(=O)(=O)O)c5cc(S(=O)(=O)O)cc(S(=O)(=O)O)c45)ccc3C)c2)c1 [suramin],inhibition of human HSP60/10,human HSP60/10,can inhibit human HSP60/10 in vitro
"O=C(O)C(=O)N(Cc1cccc(Cl)c1)Cc1ccc(S(=O)(=O)NCCC(c2ccccc2)c2ccccc2)s1 [OMTS, (oxalylamino-methylene)-thiophene sulfonamide]",inhibition of M. tuberculosis PtpB,M. tuberculosis PtpB [1],potent and selective inhibitor
O=[N+]([O-])c1cc(S(=O)(=O)Nc2ccc(-c3nc4cc(NS(=O)(=O)c5ccc(Cl)s5)ccc4o3)cc2)ccc1Cl [28R],inhibition of native Rho,native Rho,only weakly
same,inhibition of native MDH,native MDH,only weakly
O=S(=O)(Nc1ccc2oc(-c3ccccc3)nc2c1)c1cccc(O)c1 [L51-m],dose-response behaviour on PtpB phosphatase activity,M. tuberculosis PtpB [2],bi-phasic response where compounds activate then inhibit phosphatase activity
